Assay results: US20170165253A1, “TREATMENT OF SEXUAL DYSFUNCTION AND FOR IMPROVED SEXUAL QUALITY OF LIFE” (ReJoy, priority 2015, published 2017)
Structures can show the parent of a compound that is named as a salt.

Experiments:
[1] = system: nipple areola complex; test: Iontophoresis patch erection of the nipple areola complex (Example 10); assay type: in vivo, human; conditions: 1.3 mL 1% solution, iontophoresis patch 1 hour
Description: In the following experiment, a commercially available iontophoresis patch was used to erect the nipple of a subject.
1. The nipple and areola of each breast were prepared by cleaning with a sterile alcohol pad.
2. Two Inotopatch 80 (Travanti Medical) patches were removed from packaging.
3. The positive electrode of the first patch was filled with 1.3 mL of a 1% phenylephrine hydrochloride.
4. The negative electrode of the first patch was filled with 1.3 mL of a saline solution.
5. The positive electrode (approximately 1.5 cm diameter) containing the drug was placed over the nipple areola complex of the right breast; the negative electrode was placed on the adjacent breast tissue outside the nipple areola complex of the right breast.
6. Steps 2-5 were repeated, however, both electrodes of the Inotopatch 80 were filled with 1.3 mL of saline. The patch was applied to left breast following the procedure of step 5.
7. The patches were left in place (adhesive) for 1 hour (dosage=[…], 80 mA/min).
8. After 1 hour the patches were removed.

[2] = IVRT skin penetration, synthetic skin model; assay type: in vitro ADME; conditions: 10% solution
Source text: Transdermal penetration of a particular formulation can be assessed with in vitro release testing (IVRT) using a Franz cell. See Bartosova and Bajagar, “Transdermal Drug Delivery In Vitro Using Diffusion Cells,” Current Medicinal Chemistry, 2012, 19, 4671-4677.
In order to determine the dermal absorption and bioavailability of topically applied 10% Phenylephrine Hydrochloride solution, we used an IVRT experimental setup with both skin excised from pig ears and a synthetic skin model (Maine Manufacturing, LLC, Me., USA).

CNC[C@H](O)c1cccc(O)c1 [Phenylephrine HCl, Phenylephrine Hydrochloride]
nipple sensitivity ([1]; one subject): increased sensitivity in the right nipple compared to the left nipple
nipple erection ([1]; right nipple vs saline left): visibly erect
maximal skin absorption in 24 hours [2]: ≤ 83%
